Measured values as given in PubChem BioAssay (NCI).
Several values for one entry are separate records, joined by “and”; a condition that tells them apart may be missing. Equal values may be shown once.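 Exposure lasted 48 hours, with cells grown in 96-well plates and compounds tested at five concentrations. GI50: concentration for 50% inhibition of growth. TGI is the concentration that stops growth completely.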

Experiments:
Assay in all cases: NCI tumour cell line growth inhibition, 48 h
[1] = system: DMS 114 small cell lung
[2] = system: MOLT-4 leukemia
[3] = system: NCI-H460 lung
[4] = system: DU-145 prostate
[5] = system: CAKI-1 renal
[6] = system: BT-549 breast
[7] = system: SK-MEL-28 melanoma
[8] = system: SN12K1 renal
[9] = system: HCC-2998 colon
[10] = system: SF-539 CNS
[11] = system: P388 leukemia
[12] = system: UO-31 renal
[13] = system: A549 NSCLC
[14] = system: P388/ADR leukemia
[15] = system: K-562 leukemia
[16] = system: A498 renal
[17] = system: 786-0 renal
[18] = system: OVCAR-8 ovarian
[19] = system: DMS 273 small cell lung
[20] = system: OVCAR-5 ovarian
[21] = system: ACHN renal
[22] = system: NCI-H23 lung
[23] = system: HT29 colon
[24] = system: MCF7 breast
[25] = system: SR leukemia
[26] = system: SNB-19 CNS
[27] = system: TK-10 renal

In the case of `O=c1[nH]c(=O)n(C2CC(O)C(CO)O2)cc1F` (centres undefined), the TGI [1] is reported as 808 µM, the TGI [2] is reported as > 100 µM and 1930 µM and > 2500 µM and the GI50 [3] is reported as greater than 65.3 µM. For the same molecule, the TGI [3] was > 100 µM and 526 µM, the TGI [4] was > 100 µM and > 1570 µM and 1820 µM and the TGI [5] was > 100 µM and 1100 µM and > 2500 µM. The TGI [6] was > 100 µM and 1030 µM and > 869 µM, the TGI [7] was > 100 µM and 1730 µM and > 2500 µM and the TGI [8] was 1250 µM. The GI50 [9] was 33.6 µM, the GI50 [10] was greater than 79.3 µM and the TGI [11] was 179 µM. The TGI [12] was > 100 µM and 130 µM, the TGI [13] was > 100 µM and 1910 µM and > 2500 µM and the TGI [14] was 74.9 µM. For the same molecule, the TGI [15] was > 100 µM and 1080 µM, the TGI [16] was > 100 µM and 84.7 µM and the TGI [17] was > 100 µM and 1790 µM and > 2500 µM. The TGI [18] was > 100 µM and 2320 µM and > 2500 µM, the TGI [19] was 415 µM and the TGI [20] was > 100 µM and 2330 µM and > 2500 µM. For the same molecule, the GI50 [21] was greater than 92.6 µM, the TGI [21] was > 100 µM and 1670 µM and the TGI [22] was > 100 µM and 239 µM. For the same molecule, the TGI [23] was > 100 µM and 2400 µM and > 2500 µM, the TGI [24] was > 100 µM and 1940 µM and > 2500 µM and the TGI [25] was > 100 µM and 750 µM. For the same molecule, the TGI [26] was > 100 µM and 1750 µM and > 2500 µM and the TGI [27] was > 100 µM and 1650 µM and > 2500 µM.
